One assay deals with morphine analgesia. The assay can be described thus: Increase in analgesia of morphine, Tail Flick Test (Experiment 1). The format is in vivo, rats. The following applies: for percentage variation of latency of pain sensation / M (10-90) ± SE, mean percentage variation of latency: compound 10 mg/kg i.p. + morphine 2 mg/kg; for M (10-90) ± SE, mean percentage variation of latency: mean 10-90 min; for Power ratio with respect to morphine alone: rat, in vivo. In a few lines:
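Non-fasted male rats (150-200 g); a tail point is exposed to a 75 °C heat source and latency to tail movement recorded, 8 s cut-off. Readings taken before and 10, 20, 30, 45, 60 and 90 min after analgesic treatment; percentage variation calculated per animal.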

For assay [1], the system named is CCK-8 induced contraction of guinea pig gall bladder. Put plainly: Anti-CCK activity on gall bladder strips in vitro. As to conditions: CCK-8 10 ng/ml. In a few lines: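 Longitudinal guinea pig gall bladder strips in Krebs at 32 °C, gassed with O2/CO2 95:5, were contracted with 10 ng/ml CCK-8. Isometric force was recorded across several compound concentrations, and ED50 was taken as the μg/ml concentration antagonising 50% of the CCK contraction.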

With `CCCCNC(=O)C(CCC(=O)O)NC(=O)c1ccc(C)c(C)c1` (stereo not drawn) [Compound C-42], the “percentage variation of latency of pain sensation” value in the assay on morphine analgesia (10') is 49.0 ± 31%; with morphine analgesia (20'), 65.9 ± 24%; in the assay with morphine analgesia (30'), 80.1 ± 9%; in the assay on morphine analgesia (45') it was 59.1 ± 20%; in the assay with morphine analgesia (60'), 33.5 ± 20%; with morphine analgesia (90') it was 61.4 ± 12%. In addition, the “M (10-90) ± SE, mean percentage variation of latency” value in the assay on morphine analgesia turned out to be 58.2 ± 16%. Moreover, the “Power ratio with respect to morphine alone” value (“Power ratio” for short) in the assay with morphine analgesia worked out at 1.95. For the same compound, the “ED50 (concentration antagonising 50% of contracting effect of CCK-8)” value in assay [1] came to 50.1 µg/mL.
With `Cc1ccc(C(=O)NC(CCC(=O)O)C(=O)NC2CCCCC2)cc1C` (stereo not drawn) [Compound C-47], the “percentage variation of latency of pain sensation” value is 24.5% in the assay with morphine analgesia (10'); 63.5 ± 18% in the assay on morphine analgesia (20'); 52.3 ± 17% with morphine analgesia (30'); 80.1 ± 22% in the assay on morphine analgesia (45'); 73.2 ± 17% in the assay on morphine analgesia (60'); 49.3 ± 19% in the assay with morphine analgesia (90'). For the same compound, in the assay with morphine analgesia, the “M (10-90) ± SE, mean percentage variation of latency” value amounted to 57.1 ± 20%. In addition, the “Power ratio” value with morphine analgesia is listed as 1.92. Moreover, the “ED50 (concentration antagonising 50% of contracting effect of CCK-8)” value in assay [1] came to 35.1 µg/mL.
For `CCc1ccc(C(=O)NC(CCC(=O)O)C(=O)NC2CCCCC2)cc1` (stereo not drawn) [Compound C-48], the “percentage variation of latency of pain sensation” value in the assay on morphine analgesia (10') is on record as 42.1 ± 14%; with morphine analgesia (20') it was 59.5 ± 8%; in the assay with morphine analgesia (30'), 50.1 ± 21%; with morphine analgesia (45'), 78.4%; with morphine analgesia (60') it was 43.7 ± 30%; with morphine analgesia (90'), 44.9 ± 18%. Moreover, the “M (10-90) ± SE, mean percentage variation of latency” value in the assay with morphine analgesia amounted to 53.1 ± 14%. Further, the “Power ratio” value in the assay with morphine analgesia was found to be 1.78. For the same compound, in assay [1], the “ED50 (concentration antagonising 50% of contracting effect of CCK-8)” value was 119.1 µg/mL.
For `CCCCN(CCCC)C(=O)C(CCC(=O)O)NC(=O)c1ccc(C)c(C)c1` (stereo not drawn) [Compound C-54], the “percentage variation of latency of pain sensation” value in the assay with morphine analgesia (10') is reported as 77.0 ± 10%; with morphine analgesia (20') it was 89.1 ± 11%; in the assay on morphine analgesia (30'), 100 ± 0%; in the assay on morphine analgesia (45') it was 99.2 ± 0.8%; with morphine analgesia (60'), 69.6 ± 16%; in the assay with morphine analgesia (90') it was 63.2 ± 19%. Besides, the “M (10-90) ± SE, mean percentage variation of latency” value with morphine analgesia came to 83.0 ± 15%. Also, the “Power ratio” value with morphine analgesia is 2.78. Also, the “ED50 (concentration antagonising 50% of contracting effect of CCK-8)” value in assay [1] stood at 1.2 µg/mL.
Take `CCCCCN(CCCCC)C(=O)C(CCC(=O)O)NC(=O)c1ccc(C)c(C)c1` (stereo not drawn) [Compound C-55]: the “percentage variation of latency of pain sensation” value with morphine analgesia (10') is listed as 89.3 ± 16%; with morphine analgesia (20'), 86.2 ± 12%; with morphine analgesia (30'), 94.4%; in the assay with morphine analgesia (45') it was 100 ± 0%; in the assay on morphine analgesia (60') it was 100 ± 0%; with morphine analgesia (90'), 81.7 ± 13%. Besides, the “M (10-90) ± SE, mean percentage variation of latency” value with morphine analgesia is given as 88.6 ± 12%. Further, the “Power ratio” value in the assay with morphine analgesia was determined as 2.97. The “ED50 (concentration antagonising 50% of contracting effect of CCK-8)” value in assay [1] is 0.5 µg/mL.
As to `CN(C)C(=O)CCC(NC(=O)c1ccc(Cl)c(Cl)c1)C(=O)O` [Compound D-1], the “percentage variation of latency of pain sensation” value with morphine analgesia (10') came out at 75.0 ± 16.0%; with morphine analgesia (20'), 100.0 ± 0.0%; in the assay on morphine analgesia (30'), 100.0 ± 0.0%; in the assay with morphine analgesia (45') it was 86.4 ± 14.0%; with morphine analgesia (60'), 100.0 ± 0.0%; with morphine analgesia (90'), 51.0 ± 21.0%. The “M (10-90) ± SE, mean percentage variation of latency” value in the assay on morphine analgesia was determined as 85.4 ± 19.7%. Moreover, the “Power ratio” value in the assay on morphine analgesia is on record as 2.86. In assay [1], the “ED50 (concentration antagonising 50% of contracting effect of CCK-8)” value was greater than 200 µg/mL.
In the case of `CCCCNC(=O)CC(NC(=O)c1ccc(Cl)c(Cl)c1)C(=O)O` [Compound D-3], the “percentage variation of latency of pain sensation” value is reported as 63.8 ± 17.0% in the assay with morphine analgesia (10'); 79.9 ± 13.0% in the assay with morphine analgesia (20'); 100.0 ± 0.0% in the assay on morphine analgesia (30'); 58.6 ± 18.0% with morphine analgesia (45'); 33.8 ± 18.0% in the assay on morphine analgesia (60'); 32.9 ± 10.0% with morphine analgesia (90'). For the same compound, the “M (10-90) ± SE, mean percentage variation of latency” value in the assay with morphine analgesia was 61.5%. In addition, the “Power ratio” value in the assay on morphine analgesia is 2.06. The “ED50 (concentration antagonising 50% of contracting effect of CCK-8)” value in assay [1] was greater than 200 µg/mL.
With `CCCCN(CCCC)C(=O)CCC(NC(=O)c1ccc(Br)cc1)C(=O)O` [Compound D-4], the “percentage variation of latency of pain sensation” value with morphine analgesia (10') is 72.8 ± 15.0%; in the assay with morphine analgesia (20') it was 95.8 ± 3.0%; in the assay with morphine analgesia (30'), 96.3 ± 4.0%; in the assay on morphine analgesia (45'), 85.5%; in the assay on morphine analgesia (60'), 87.5 ± 8.0%; in the assay with morphine analgesia (90') it was 45.3 ± 6.0%. Further, in the assay on morphine analgesia, the “M (10-90) ± SE, mean percentage variation of latency” value is given as 80.5 ± 19.3%. In the assay on morphine analgesia, the “Power ratio” value was 2.70. Further, the “ED50 (concentration antagonising 50% of contracting effect of CCK-8)” value in assay [1] was greater than 200 µg/mL.
With `O=C(NC(CCC(=O)N1CCOCC1)C(=O)O)c1ccc(Br)cc1` [Compound D-6], the “percentage variation of latency of pain sensation” value in the assay with morphine analgesia (10') was determined as 31.2 ± 22.0%; in the assay with morphine analgesia (20') it was 45.8 ± 23.0%; in the assay on morphine analgesia (30'), 50.7%; with morphine analgesia (45'), 44.5 ± 24.0%; in the assay on morphine analgesia (60'), 45.3 ± 24.0%; in the assay on morphine analgesia (90'), 28.2 ± 19.0%. Moreover, in the assay on morphine analgesia, the “M (10-90) ± SE, mean percentage variation of latency” value came out at 41.0 ± 9.0%. Further, the “Power ratio” value in the assay with morphine analgesia stood at 1.37. For the same compound, in assay [1], the “ED50 (concentration antagonising 50% of contracting effect of CCK-8)” value was greater than 200 µg/mL.
For `O=C(NC(CCC(=O)N1CCCCC1)C(=O)O)c1ccc(Br)cc1` [Compound D-7], the “percentage variation of latency of pain sensation” value was 31.8 ± 19.0% in the assay on morphine analgesia (10'); 48.0 ± 16.0% with morphine analgesia (20'); 70.5 ± 15.0% with morphine analgesia (30'); 73.7 ± 13.0% with morphine analgesia (45'); 88.6% in the assay with morphine analgesia (60'); 32.4 ± 19.0% in the assay with morphine analgesia (90'). Moreover, in the assay with morphine analgesia, the “M (10-90) ± SE, mean percentage variation of latency” value worked out at 57.5 ± 23.5%. For the same compound, the “Power ratio” value in the assay with morphine analgesia amounted to 1.93. Besides, in assay [1], the “ED50 (concentration antagonising 50% of contracting effect of CCK-8)” value is greater than 200 µg/mL.
Consider `O=C(NC(CCC(=O)N1CCCCC1)C(=O)O)c1ccc(Cl)c(Cl)c1` [Compound D-9], for which the “percentage variation of latency of pain sensation” value is on record as 88.5 ± 19.0% in the assay on morphine analgesia (10'); 74.0 ± 16.0% in the assay with morphine analgesia (20'); 70.9 ± 16.0% with morphine analgesia (30'); 73.0 ± 15.0% in the assay with morphine analgesia (45'); 84.5 ± 12.0% in the assay on morphine analgesia (60'); 79.9 ± 12.0% with morphine analgesia (90'). In the assay on morphine analgesia, the “M (10-90) ± SE, mean percentage variation of latency” value was found to be 75.1 ± 6.0%. Further, in the assay on morphine analgesia, the “Power ratio” value came out at 2.52. Further, the “ED50 (concentration antagonising 50% of contracting effect of CCK-8)” value in assay [1] was greater than 200 µg/mL.
Regarding `N#Cc1ccc(C(=O)NC(CCC(=O)N2CCCCC2)C(=O)O)cc1` [Compound D-10], the “percentage variation of latency of pain sensation” value in the assay with morphine analgesia (10') worked out at 41.0 ± 8.0%; in the assay on morphine analgesia (20') it was 58.6 ± 17.0%; with morphine analgesia (30'), 59.8 ± 17.0%; with morphine analgesia (45') it was 62.7 ± 15.0%; in the assay on morphine analgesia (60'), 47.0%; in the assay with morphine analgesia (90') it was 35.4 ± 11.0%. The “M (10-90) ± SE, mean percentage variation of latency” value in the assay on morphine analgesia stood at 50.8 ± 11.2%. Moreover, the “Power ratio” value in the assay on morphine analgesia stood at 1.70. Further, the “ED50 (concentration antagonising 50% of contracting effect of CCK-8)” value in assay [1] is greater than 200 µg/mL.
For the compound `Cc1ccc(C(=O)NC(CCC(=O)N(C)C)C(=O)O)cc1C` [Compound D-12], the “percentage variation of latency of pain sensation” value in the assay with morphine analgesia (10') is given as 45.4 ± 23%; in the assay on morphine analgesia (20') it was 63.9 ± 15%; in the assay on morphine analgesia (30') it was 84. ± 16%; with morphine analgesia (45'), 100 ± 0%; with morphine analgesia (60'), 78.5 ± 15%; in the assay on morphine analgesia (90') it was 56.1 ± 22%. The “M (10-90) ± SE, mean percentage variation of latency” value in the assay with morphine analgesia is 71.3 ± 20%. Moreover, in the assay on morphine analgesia, the “Power ratio” value came out at 2.39. The “ED50 (concentration antagonising 50% of contracting effect of CCK-8)” value in assay [1] is greater than 300 µg/mL.
`CCCN(CCC)C(=O)CCC(NC(=O)c1ccc(C)c(C)c1)C(=O)O` [Compound D-15]: the “percentage variation of latency of pain sensation” value turned out to be 43.5 ± 16% in the assay on morphine analgesia (10'); 48.7 ± 18% in the assay on morphine analgesia (20'); 72.6% with morphine analgesia (30'); 60.1 ± 23% in the assay with morphine analgesia (45'); 59.2 ± 18% in the assay with morphine analgesia (60'); 43.5 ± 24% in the assay on morphine analgesia (90'). For the same compound, in the assay with morphine analgesia, the “M (10-90) ± SE, mean percentage variation of latency” value came out at 54.6 ± 11%. Further, the “Power ratio” value with morphine analgesia was determined as 1.83. The “ED50 (concentration antagonising 50% of contracting effect of CCK-8)” value in assay [1] came to 245.0 µg/mL.

These data come from US4791215A, “Derivatives of glutamic acid and aspartic acid” (priority 1984, dated 1988).
